As usually defined, the MIC is the smallest concentration in the dilution series that meets the test's criterion for growth inhibition. As a reminder, the MBC is the smallest concentration meeting the test's criterion for killing. A higher MBC goes with less potent killing. Usually IC50 stands for the concentration that inhibits the measured activity by half. Lower therefore signals higher potency.

Consider four molecules from PMC9569995, “Study of Biological Activities and ADMET-Related Properties of Salicylanilide-Based Peptidomimetics” (International Journal of Molecular Sciences, 2022).

Series [1] has as its system vancomycin-resistant E. faecalis VRE 368. Kind of series: In vitro antibacterial evaluation, MIC by microtitration broth method. As to conditions: Enterococcus faecalis, 24 h.
Series [2] deals with methicillin-resistant S. aureus SA 3202. Kind of series: Determination of minimum bactericidal concentrations (agar aliquot subculture). As to conditions: Staphylococcus aureus.
The test system of series [3] is methicillin-resistant S. aureus SA 630. Described as above. As to conditions: Staphylococcus aureus.
Series [4] deals with methicillin-resistant S. aureus SA 3202. Kind of series: In vitro antibacterial evaluation, MIC by microtitration broth method. As to conditions: Staphylococcus aureus, 24 h.
Series [5] deals with Staphylococcus aureus ATCC 29213. Described as above. Particulars: ATCC29213, 24 h.
Series [6] has as its system Enterococcus faecalis ATCC 29212. The description is as above. As to conditions: ATCC29212, 24 h.
The subject of series [7] is methicillin-resistant S. aureus SA 630. The description is as above. Particulars: Staphylococcus aureus, 24 h.
Series [8] concerns Enterococcus faecalis ATCC 29212. In words: Determination of minimum bactericidal concentrations (agar aliquot subculture). As to conditions: ATCC29212.
Series [9] has as its system Staphylococcus aureus ATCC 29213. Described as above. As to conditions: ATCC29213.
The test system of series [10] is vancomycin-resistant E. faecalis VRE 725B. Kind of series: In vitro antibacterial evaluation, MIC by microtitration broth method. Particulars: Enterococcus faecalis, 24 h.
In series [11] the test system is vancomycin-resistant E. faecalis VRE 342B. In words: Determination of minimum bactericidal concentrations (agar aliquot subculture). Particulars: Enterococcus faecalis.
In series [12] the test system is methicillin-resistant S. aureus 63718. Kind of series: In vitro antibacterial evaluation, MIC by microtitration broth method. As to conditions: Staphylococcus aureus, 24 h.
Series [13] has the same test system. In words: Determination of minimum bactericidal concentrations (agar aliquot subculture). As to conditions: Staphylococcus aureus.
Series [14] has as its system vancomycin-resistant E. faecalis VRE 368. Described as above. Particulars: Enterococcus faecalis.
Series [15] relates to vancomycin-resistant E. faecalis VRE 725B. The series is described as above. As to conditions: Enterococcus faecalis.
In series [16] the test system is vancomycin-resistant E. faecalis VRE 342B. In words: In vitro antibacterial evaluation, MIC by microtitration broth method. As to conditions: Enterococcus faecalis, 24 h.
The next series has as its system S. aureus ATCC 29213. Kind of series: MTT assay of bacterial viability (respiration). Particulars: for Conc.: lowest multiple of MBC with at least 70% inhibition of S. aureus viability / Conc.: lowest multiple of MIC with at least 70% inhibition of S. aureus viability: MTT, 24 h. Background: Tetrazolium assays rely on reduction of a dye to a coloured formazan, in cell work by metabolically active cells.

Series [17] deals with Mycobacterium tuberculosis H37Ra/ATCC 25177. In words: In vitro antimycobacterial evaluation, MIC (alamarBlue). As to conditions: MT; 14 days, 37 °C. Background: Resazurin is reduced to fluorescent resorufin, in cell work by metabolically active cells.
A further series has as its system S. aureus ATCC 29123. In words: Crystal violet uptake (membrane permeability). Particulars: 4× MIC, 1 h; compared to growth control and 1% Tween 20.
The test system of series [18] is human monocytic leukemia cell line THP-1. Kind of series: In vitro cell viability analysis (CCK-8). Particulars: ± SD, n = 6, medium with 10% FBS, 24 h. In kind it is cell-based. The protocol:
Human monocytic leukemia THP-1 cells obtained from the European Collection of Cell Cultures (ECACC, Salisbury, UK) were used for in vitro antiproliferative assays. They were routinely cultured in Roswell Park Memorial Institute RPMI 1640 medium supplemented with 10% fetal bovine serum (FBS), 2% L-glutamine, 1% penicillin, and streptomycin (all from Sigma-Aldrich) at 37 °C with 5% CO2. The cells were incubated in a complete medium (i.e., containing FBS) with test compounds at 37 °C with 5% CO2 for 24 h, similarly as we described previously. The effect of the test compounds dissolved in DMSO on cell viability was determined using a Cell Counting Kit-8 (CCK-8; Sigma) according to the manufacturer’s instructions.

In the next series the test system is M. smegmatis ATCC 700084. In words: In vitro antimycobacterial evaluation, MIC (broth dilution micro-method). It counts as cell-based, Mycobacterium smegmatis. As to conditions: Mycolicibacterium smegmatis, ATCC700084, 72 h; MS; three days, 37 °C; read-out: MIC. On the procedure: For M. smegmatis, the broth dilution micro-method in Middlebrook 7H9 medium (Difco) supplemented with ADC Enrichment (Difco) was used. […] Bacterial inocula were prepared by transferring colonies from culture to sterile water. The cell density was adjusted to 0.5 McFarland units using a densitometer (Densi-La-Meter, LIAP, Riga, Latvia). The final inoculum was made by 1:1000 dilution of the suspension with sterile water. Drug-free controls, sterility controls, and controls consisting of medium and DMSO alone were included. The determination of results was performed visually after three days of static incubation in the darkness at 37 °C in an aerobic atmosphere.
For orientation: Broth dilution looks for growth in wells or tubes with falling amounts of substance.

Series [19] can be described thus: Lipophilicity determination by HPLC. In kind it is physicochemical. Particulars: for log D6.5: HPLC C18, MeOH 72%/acetate-buffered saline pH 6.5 28%; for log D7.4: HPLC C18, MeOH 72%/acetate-buffered saline pH 7.4 28%; for log k: logarithm of capacity factor, HPLC C18, MeOH 72%/H2O 28%. The text has this: . A chromatographic column Symmetry® C18 5 μm, 4.6 × 250 mm, Part No. W21751W016 (Waters Corp, Milford, MA, USA) was used. The HPLC separation process was monitored by ChemStation for LC 3D systems (Agilent Technologies). Isocratic elution by a mixture of MeOH (HPLC grade, 72%) and H2O-HPLC Mili-Q grade (28%) as a mobile phase was used for the determination of capacity factor k. Isocratic elution by a mixture of MeOH (HPLC grade, 72%) and acetate-buffered saline (pH 7.4 and pH 6.5) (28%) as a mobile phase was used for the determination of distribution coefficient expressed as D7.4 and D6.5. The total flow of the column was 1.0 mL/min, injection was 20 μL, column temperature was 40 °C, and sample temperature was 10 °C. The detection wavelength of 210 nm was chosen. A KI methanolic solution was used for the determination of the dead times (tD). Retention times (tR) were measured in minutes. The capacity factors k were calculated according to the formula k = (tR − tD)/tD, where tR is the retention time of the solute, and tD is the dead time obtained using an unretained analyte. The distribution coefficients DpH were calculated according to the formula DpH = (tR − tD)/tD. Each experiment was repeated three times.

≈ marks a conversion by molar mass, not a printed value.

`CC1(C)S[C@@H]2[C@H](NC(=O)[C@H](N)c3ccccc3)C(=O)N2[C@H]1C(=O)O` [APC, ampicillin, reference compound]: the MIC in [1] came to 11.5 µM; in series [4] it was 45.8 µM (≈ 16 µg/mL); in series [5], 5.72 µM (≈ 2 µg/mL); in series [6], 2.81 µM; in series [7], 45.8 µM (≈ 16 µg/mL); in series [10] it was 11.5 µM. Also, the MIC is 45.8 µM (≈ 16 µg/mL) in series [12] and 11.5 µM in series [16]. Also, the MBC was greater than 45.8 µM in series [2]; greater than 45.8 µM in series [3]; 2.81 µM (≈ 0.982 µg/mL) in series [8]; greater than 5.72 µM in [9]; 11.5 µM (≈ 4.02 µg/mL) in series [11]; greater than 45.8 µM in series [13]. For the same molecule, the MBC in series [14] and in [15] was 11.5 µM (≈ 4.02 µg/mL) each time. Further, the “Conc.: lowest multiple of MBC with at least 70% inhibition of S. aureus viability” value in the series with S. aureus ATCC 29213 was 8× MIC (>8× MBC). The “Conc.: lowest multiple of MIC with at least 70% inhibition of S. aureus viability” value with S. aureus ATCC 29213 was 8× MIC (>8× MBC). Further, in the series on S. aureus ATCC 29213 (at 8× MIC (>8× MBC)), the “S. aureus Viability Inhibition” value came to 90.0%.
Take `O=C(N[C@@H](Cc1ccccc1)C(=O)Nc1ccc(C(F)(F)F)cc1)c1cc(Cl)ccc1O` [3h]: the MIC in series [1] was 277 µM; in series [17], “n.a. n.d. (n.a. = no activity (MIC > 256 µg/mL))”; in series [4], 2.16 µM (≈ 1 µg/mL); in series [5], 1.08 µM (≈ 0.5 µg/mL); in series [6], 277 µM; in series [7], 1.08 µM (≈ 0.5 µg/mL). Also, the minimal inhibitory concentration (MIC) in series [10] was 277 µM; in the series on M. smegmatis ATCC 700084, greater than 256 µg/mL; in [12], 0.27 µM (≈ 0.125 µg/mL); in [16], 277 µM. For the same molecule, the MBC in series [2] stood at 2.16 µM (≈ 1 µg/mL); in series [3], 2.16 µM (≈ 1 µg/mL); in series [9], 2.16 µM (≈ 1 µg/mL); in series [13], 0.27 µM (≈ 0.125 µg/mL). Further, the “effect on plasma membrane permeability (crystal violet uptake)” value with S. aureus ATCC 29123 is “did not affect plasma membrane permeability”. Moreover, the IC50 in [18] stood at 3.3 ± 1 µM. In addition, the “Conc.: lowest multiple of MBC with at least 70% inhibition of S. aureus viability” value with S. aureus ATCC 29213 was 2× MIC (2× MBC). Further, in the series with S. aureus ATCC 29213, the “Conc.: lowest multiple of MIC with at least 70% inhibition of S. aureus viability” value is 2× MIC (2× MBC). The “S. aureus Viability Inhibition” value in the series with S. aureus ATCC 29213 (at 2× MIC (2× MBC)) was 94%. For the same molecule, in [19], the “log D6.5” value is 1.148. For the same molecule, the “log D7.4” value in series [19] amounted to 1.043. In [19], this molecule showed a log k of 1.192.
As to `O=C(N[C@@H](CC1CCCCC1)C(=O)Nc1ccc(C(F)(F)F)cc1)c1cc(Cl)ccc1O` [3g, 5-Chloro-N-[(2S)-3-cyclohexyl-1-oxo-1-{[4-(trifluoromethyl)phenyl]amino}propan-2-yl]-2-hydroxybenzamide], the MIC in series [1] was 546 µM; in [17], “n.a. n.d. (n.a. = no activity (MIC > 256 µg/mL))”; in [4], 1.07 µM (≈ 0.502 µg/mL); in [5], 1.07 µM (≈ 0.502 µg/mL); in [6], 546 µM; in series [7], 1.07 µM (≈ 0.502 µg/mL). The MIC in series [10] was 546 µM; with M. smegmatis ATCC 700084, greater than 256 µg/mL; in [12], 2.13 µM (≈ 0.999 µg/mL); in series [16], 546 µM. The MBC in series [2] came to 1.07 µM (≈ 0.502 µg/mL); in [3], 2.13 µM (≈ 0.999 µg/mL); in series [9], 1.07 µM (≈ 0.502 µg/mL); in series [13] it was 2.13 µM (≈ 0.999 µg/mL). In addition, the “effect on plasma membrane permeability (crystal violet uptake)” value in the series with S. aureus ATCC 29123 is “did not affect plasma membrane permeability”. For the same molecule, the IC50 in series [18] was found to be 1.4 ± 1.1 µM. Moreover, the “Conc.: lowest multiple of MBC with at least 70% inhibition of S. aureus viability” value with S. aureus ATCC 29213 is listed as 0.5× MIC (0.5× MBC). For the same molecule, the “Conc.: lowest multiple of MIC with at least 70% inhibition of S. aureus viability” value in the series on S. aureus ATCC 29213 is listed as 0.5× MIC (0.5× MBC). Also, the “S. aureus Viability Inhibition” value with S. aureus ATCC 29213 (at 0.5× MIC (0.5× MBC)) is recorded as 95.2%. For the same molecule, the “viability of bacterial cells” value in the series on S. aureus ATCC 29213 (at their MIC value or below) is given as “less than 70%”. In [19], the “log D6.5” value is 1.615. The “log D7.4” value in series [19] stood at 1.576. The “averaged lipophilicity value of log k/log D6.5/log D7.4” value in [19] (average of the three experimental descriptors) turned out to be 1.62 ± 0.05. The log k in series [19] is 1.679.
As for `CCCC[C@H](NC(=O)c1cc(Cl)ccc1O)C(=O)Nc1ccc(C(F)(F)F)cc1` [3d, 5-Chloro-2-hydroxy-N-[(2S)-1-oxo-1-{[4-(trifluoromethyl)phenyl]amino}hexan-2-yl]benzamide], the MIC is greater than 256 µg/mL in series [1]; “n.a. n.d. (n.a. = no activity (MIC > 256 µg/mL))” in series [17]; 2.33 µM (≈ 0.999 µg/mL) in series [4]; 0.583 µM (≈ 0.25 µg/mL) in series [5]; greater than 256 µg/mL in series [6]; 2.33 µM (≈ 0.999 µg/mL) in [7]. The MIC is greater than 256 µg/mL in series [10], greater than 256 µg/mL with M. smegmatis ATCC 700084, 4.66 µM (≈ 2 µg/mL) in series [12] and greater than 256 µg/mL in series [16]. The MBC in series [2] came out at 2.33 µM (≈ 0.999 µg/mL); in series [3] it was 4.66 µM (≈ 2 µg/mL); in [9], 1.17 µM (≈ 0.502 µg/mL); in series [13] it was 4.66 µM (≈ 2 µg/mL). Besides, the IC50 in series [18] stood at 4.5 ± 1.2 µM. In addition, the “log D6.5” value in [19] is on record as 1.247. Further, in series [19], the “log D7.4” value was found to be 1.213. The molecule also yielded a log k in [19] of 1.322.
